In patent US20230086703A1, “N-(4-(5-chloropyridin-3-yl)phenyl)-2-(2-(cyclopropanesulfonamido)pyrimidin-4-yl) butanamide derivatives and related compounds as human CTPS1 inhibitors for the treatment of proliferative diseases” (Step Pharma S.A.S., priority 2019, published 2023) one finds IC50 data, which are given here for 14 compounds.

The target in this test is T1, human CTPS1 (Homo sapiens, UniProt P17812).
T1 construct: FLAG (with GG linker); His8 (with GG linker); purchased Proteros biostructures GmbH
T1 sequence (P17812 1-591): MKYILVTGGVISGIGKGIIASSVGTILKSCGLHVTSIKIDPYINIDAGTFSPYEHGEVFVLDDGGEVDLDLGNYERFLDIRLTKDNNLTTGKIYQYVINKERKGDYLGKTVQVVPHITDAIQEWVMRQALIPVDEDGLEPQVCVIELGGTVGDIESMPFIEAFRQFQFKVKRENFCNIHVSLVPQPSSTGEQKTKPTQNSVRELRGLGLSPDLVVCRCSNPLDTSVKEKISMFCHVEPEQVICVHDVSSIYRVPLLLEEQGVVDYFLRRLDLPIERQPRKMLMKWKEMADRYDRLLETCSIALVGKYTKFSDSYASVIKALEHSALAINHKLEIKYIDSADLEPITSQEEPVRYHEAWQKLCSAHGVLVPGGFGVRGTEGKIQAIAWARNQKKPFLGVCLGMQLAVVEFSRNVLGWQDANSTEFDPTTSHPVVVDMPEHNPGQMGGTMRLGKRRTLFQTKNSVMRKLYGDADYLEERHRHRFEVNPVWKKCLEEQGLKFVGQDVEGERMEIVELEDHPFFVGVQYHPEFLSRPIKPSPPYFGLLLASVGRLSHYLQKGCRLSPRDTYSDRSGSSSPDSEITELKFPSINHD
The experiment in a line: Human CTPS1 enzyme inhibition, ADP-Glo Max assay. The test is classed as biochemical. To be noted: ADP-Glo Max assay; Table 10; read-out: Human CTPS1 Enzyme Inhibition, IC50 grouped by potency range (CTPS1). On the procedure: The enzyme inhibitory activities of compounds invented against the target of interest were determined using the ADP-Glo™ Max assay (Promega, UK). Assays for human CTPS1 were performed in 1× assay buffer containing 50 mM Tris, 10 mM MgCl2, 0.01% Tween-20, pH to 8.0 accordingly. Finally, immediately before use, L-cysteine was added to the 1× assay buffer to a final concentration of 2 mM. All reagents are from Sigma-Aldrich unless specified otherwise.
3× human CTPS1 protein was prepared in 1× assay buffer to the final working protein concentration required for the reaction. A 2 uL volume per well of 3× human CTPS1 protein was mixed with 2 uL per well of 3× test compound (compound prepared in 1× assay buffer to an appropriate final 3× compound concentration respective to the concentration response curve designed for the compounds under test) for 10 minutes at 25° C. […] ADP-Glo™ Max reagent was added for 60 minutes (6 μL per well) and subsequently ADP-Glo™ Max development reagent was added for 60 minutes (12 uL per well) prior to signal detection in a microplate reader (EnVision® Multilabel Reader, Perkin Elmer). Following each reagent addition over the course of the assay, assay plates were pulse centrifuged for 30 seconds at 500 rpm.
In all cases, the enzyme converts ATP to ADP and the ADP-Glo™ Max reagent subsequently depletes any remaining endogenous ATP in the reaction system. The ADP-Glo™ Max detection reagent converts the ADP that has been enzymatically produced back into ATP and using ATP as a substrate together with luciferin for the enzyme luciferase, light is generated which produces a detectable luminescence. […] The percentage inhibition produced by each concentration of compound was calculated using the equation shown below: […]
On the technique in general: In ADP-Glo the light output rises with the ADP produced.
Consider `CC(C)(C(=O)Nc1ncc(-c2cncc(C#N)n2)cc1F)c1csc(NS(=O)(=O)C2CC2)n1` [T113, N-(5-(6-cyanopyrazin-2-yl)-3-fluoropyridin-2-yl)-2-(2-(cyclopropanesulfonamido)thiazol-4-yl)-2-methylpropanamide], for which the IC50 (as a rule, the concentration that inhibits the measured activity by half) was 1 to 10 µM.

As for `O=C(Cc1csc(NS(=O)(=O)C2CC2)n1)Nc1ccc(-c2cccnc2)c(F)c1F` [T188, 2-(2-(cyclopropanesulfonamido)thiazol-4-yl)-N-(2,3-difluoro-4-(pyridin-3-yl)phenyl)acetamide], the IC50 is 0.1 to 1 µM. For `Cc1cncc(-c2ccc(NC(=O)C(C)(C)c3csc(NS(=O)(=O)C4CC4)n3)cc2)n1` [T266, 2-(2-(cyclopropanesulfonamido)thiazol-4-yl)-2-methyl-N-(4-(6-methylpyrazin-2-yl)phenyl)propanamide], the IC50 was less than 0.1 µM. Consider `CCC(CC)(C(=O)Nc1ccc(-c2cncc(C#N)c2)cc1)c1csc(NS(=O)(=O)C2CC2)n1` [T93, N-(4-(5-cyanopyridin-3-yl)phenyl)-2-(2-(cyclopropanesulfonamido)thiazol-4-yl)-2-ethylbutanamide], for which the IC50 was less than 0.1 µM. Under `Cc1cc(-c2cncc(Cl)n2)ccc1NC(=O)C(C)(C)c1csc(NS(=O)(=O)C2CC2)n1` [T138, N-(4-(6-chloropyrazin-2-yl)-2-methylphenyl)-2-(2-(cyclopropanesulfonamido)thiazol-4-yl)-2-methylpropanamide] stands less than 0.1 µM; under `CC(C)(C(=O)Nc1ccc(-c2cncc(OCC(F)(F)F)c2)cc1)c1csc(NS(=O)(=O)C2CC2)n1` [T135, 2-(2-(cyclopropanesulfonamido)thiazol-4-yl)-2-methyl-N-(4-(5-(2,2,2-trifluoroethoxy)pyridin-3-yl)phenyl)propanamide], 0.1 to 1 µM; under `CC(C)(C(=O)Nc1ncc(-c2cccnc2)cc1F)c1csc(NS(=O)(=O)C2CC2)n1` [T227, 2-(2-(cyclopropanesulfonamido)thiazol-4-yl)-N-(5-fluoro-[3,3′-bipyridin]-6-yl)-2-methylpropanamide], 0.1 to 1 µM. As for `CC(C)(C(=O)Nc1ccc(-c2cncc(F)c2)cc1)c1csc(NS(=O)(=O)C2CC2)n1` [T253, 2-(2-(cyclopropanesulfonamido)thiazol-4-yl)-N-(4-(5-fluoropyridin-3-yl)phenyl)-2-methylpropanamide], the 50% inhibitory concentration (IC50) is less than 0.1 µM. On to `CC(C)(C(=O)Nc1ccc(-c2cncc(C(F)(F)F)n2)cc1)c1csc(NS(=O)(=O)C2CCC2)n1` [T308, 2-(2-(cyclobutanesulfonamido)thiazol-4-yl)-2-methyl-N-(4-(6-(trifluoromethyl)pyrazin-2-yl)phenyl)propanamide], for which the IC50 was in the range of 0.1 to 1 µM.

Take `CCC(CC)(C(=O)Nc1ccc(-c2cccnc2)cn1)c1csc(NS(=O)(=O)C2CC2)n1` [T144, N-([3,3′-bipyridin]-6-yl)-2-(2-(cyclopropanesulfonamido)thiazol-4-yl)-2-ethylbutanamide]: the IC50 lay within 0.1 to 1 µM. For the compound `CCOc1cc(NC(=O)C(C)(C)c2csc(NS(=O)(=O)C3CC3)n2)ccc1-c1cncc(C#N)c1` [T289, N-(4-(5-cyanopyridin-3-yl)-3-ethoxyphenyl)-2-(2-(cyclopropanesulfonamido)thiazol-4-yl)-2-methylpropanamide], the IC50 lay within 0.1 to 1 µM. Turning to `CC(C)CS(=O)(=O)Nc1nc(C(C)(C)C(=O)Nc2ccc(-c3cccnc3)cc2)cs1` [T311, 2-methyl-2-(2-((2-methylpropyl)sulfonamido)thiazol-4-yl)-N-(4-(pyridin-3-yl)phenyl)propanamide], the IC50 was 1 to 10 µM. In the case of `COc1cncc(-c2ccc(NC(=O)C(C)(C)c3csc(NS(=O)(=O)C4CC4)n3)c(F)c2)c1` [T56, 2-(2-(cyclopropanesulfonamido)thiazol-4-yl)-N-(2-fluoro-4-(5-methoxypyridin-3-yl)phenyl)-2-methylpropanamide], the 50% inhibitory concentration (IC50) was less than 0.1 µM. Regarding `CCOc1cncc(-c2ccc(NC(=O)C(CC)(CC)c3csc(NS(=O)(=O)C4CC4)n3)nc2)c1` [T145, 2-(2-(cyclopropanesulfonamido)thiazol-4-yl)-N-(5′-ethoxy-[3,3′-bipyridin]-6-yl)-2-ethylbutanamide], the IC50 was less than 0.1 µM.
